In patent US8883841B2, “Oncogenic ras-specific cytotoxic compound and methods of use thereof” (The Board of Regents of the University of Texas System, priority 2005, dated 2014):
Structures can show the parent of a compound that is named as a salt. Where two headings read alike, the source gives them in different places.

Assays:
T29 cells [1] = test: cells; conditions: Homo sapiens, T29, read-out: IC50 in T29 cells
T29Kt1 cells [2] = test: cells; conditions: Homo sapiens
H460 cells [3] = test: cells; conditions: Homo sapiens
HKE3 = test: Cell viability, HKE3 colon cancer cells; format: cell-based, human; conditions: Homo sapiens, HKE3, Colon, read-out: IC50 (−LogM) (converted)
H23 = test: Cell viability, H23 lung cancer cells; format: cell-based, human; conditions: Homo sapiens, NCI-H23; H23, Lung; read-out: IC50 (−LogM) (converted)
Sw620 = test: Cell viability, Sw620 colon cancer cells; format: cell-based, human; conditions: Homo sapiens, SW-620; Sw620, Colon; read-out: IC50 (−LogM) (converted)
A549CK8 = test: Cell viability, A549CK8 lung cancer cells; format: cell-based, human; conditions: Homo sapiens; A549CK8, Lung; read-out: IC50 (−LogM) (converted)
H1395 = test: Cell viability, H1395 lung cancer cells; format: cell-based, human; conditions: Homo sapiens, NCI-H1395; H1395, Lung; read-out: IC50 (−LogM) (converted)
H226B cells = test: Cell viability, H226B lung cancer cells; format: cell-based, human; conditions: Homo sapiens, H226B, Lung, read-out: IC50 (−LogM) (converted)
Ovcar3 = test: Cell viability, Ovcar3 ovary cancer cells; format: cell-based; conditions: Homo sapiens, OVCAR-3
Capanc-1 = test: Cell viability, Capanc-1 pancreatic cancer cells; format: cell-based, human; conditions: Homo sapiens, Pancreatic cancer cell; capanc1, Pancrease; read-out: IC50 (−LogM) (converted)
Heb46 = test: Cell viability, Heb46 kidney cells; format: cell-based
H1933 = test: Cell viability, H1933 lung cancer cells; format: cell-based, human; conditions: Homo sapiens; H1933, Lung; read-out: IC50 (−LogM) (converted)
H1299 cells = test: Cell viability, H1299 lung cancer cells; format: cell-based, human; conditions: Homo sapiens, NCI-H1299; h1299, Lung; read-out: IC50 (−LogM) (converted)
H2009 = test: Cell viability, H2009 lung cancer cells; format: cell-based, human; conditions: Homo sapiens, NCI-H2009; H2009, Lung; read-out: IC50 (−LogM) (converted)
Hey = test: Cell viability, Hey ovary cancer cells; format: cell-based
Heb44 = test: Cell viability, Heb44 kidney cells; format: cell-based
H2122 = test: Cell viability, H2122 lung cancer cells; format: cell-based, human; conditions: Homo sapiens, NCI-H2122; H2122, Lung; read-out: IC50 (−LogM) (converted)
Hct116 = test: Cell viability, Hct116 colon cancer cells; format: cell-based, human; conditions: Homo sapiens, HCT-116; Hct116, Colon; read-out: IC50 (−LogM) (converted)
miapac = test: Cell viability, miapac pancreatic cancer cells; format: cell-based, human; conditions: Homo sapiens, Pancreatic cancer cell; miapac, Pancrease; read-out: IC50 (−LogM) (converted)
AsPC-1 = test: Cell viability, AsPC-1 pancreatic cancer cells; format: cell-based, human; conditions: Homo sapiens; ASPC1, Pancrease; read-out: IC50 (−LogM) (converted)
CT116P53 = test: Cell viability, CT116P53 colon cancer cells; format: cell-based, human; conditions: Homo sapiens; CT116P53, Colon; read-out: IC50 (−LogM) (converted)
DLD1 = test: Cell viability, DLD1 colon cancer cells; format: cell-based, human; conditions: Homo sapiens, DLD-1; DLD1, Colon; read-out: IC50 (−LogM) (converted)
H2087 = test: Cell viability, H2087 lung cancer cells; format: cell-based, human; conditions: Homo sapiens, NCI-H2087; H2087, Lung; read-out: IC50 (−LogM) (converted)
H322 cells = test: Cell viability, H322 lung cancer cells; format: cell-based, human; conditions: Homo sapiens, NCI-H322; H322, Lung; read-out: IC50 (−LogM) (converted)
Ovcar443 = test: Cell viability, Ovcar443 ovary cancer cells; format: cell-based
Ovca429 = test: Cell viability, Ovca429 ovary cancer cells; format: cell-based
SKOV3 = test: Cell viability, SKOV3 ovary cancer cells; format: cell-based; conditions: Homo sapiens, SK-OV-3
A549 cells = test: Cell viability, A549 lung cancer cells; format: cell-based, human; conditions: Homo sapiens; A549, Lung; read-out: IC50 (−LogM) (converted)
T29Kt1 cells [4] = conditions: Table 1; value is the negative log10 of mol/L
T29 cells [5] = conditions: Table 1; value is the negative log10 of mol/L
H460 cells [6] = conditions: Table 1; value is the negative log10 of mol/L
[7] = T29Kt1, read-out: IC50 in T29k cells, Table 1
[8] = NCI-H460, read-out: IC50 in H460 cells, Table 1
[9] = NCI-H460, read-out: IC50 (−LogM), H460, Lung (converted)

Structure (SMILES): O=Cc1cn(Cc2cc(C(F)(F)F)cc(C(F)(F)F)c2)c2ccccc12 [Oncrasin K76]
- IC50 (T29 cells [1]): 6.31 µM
- IC50 (T29Kt1 cells [2]; [7]): 3.98 µM
- IC50 (H460 cells [3]; [8]): 1.26 µM

Structure (SMILES): O=[N+]([O-])c1ccc(Cn2cc(CO)c3ccccc32)cc1 [Oncrasin K71, 1H-Indole-3-methanol, 1-[(4-nitrophenyl)methyl]-]
- IC50 (HKE3; first HKE3 line): 0.398 µM
- IC50 (HKE3; second HKE3 line): 0.2 µM
- IC50 (H23): 31.6 µM
- IC50 (Sw620): 31.6 µM
- IC50 (T29Kt1 cells [2]; [7]): 0.158 µM
- IC50 (A549CK8): 7.94 µM
- IC50 (H1395): < 31.6 µM
- IC50 (H226B cells; first H226B line): 0.316 µM
- IC50 (H226B cells; second H226B line): 1.58 µM
- IC50 (Ovcar3): 2.51 µM
- IC50 (Capanc-1): 0.126 µM
- IC50 (Heb46): 3.98 µM
- IC50 (H1933): 31.6 µM
- IC50 (H1299 cells): 10 µM
- IC50 (H2009): < 31.6 µM
- IC50 (H460 cells [3]; [9]): 0.0794 µM
- IC50 (H460 cells [3]; [8]): 0.0794 µM
- IC50 (Hey): 31.6 µM
- IC50 (Heb44): 0.158 µM
- IC50 (H2122): 3.16 µM
- IC50 (Hct116): 3.16 µM
- IC50 (miapac): < 31.6 µM
- IC50 (AsPC-1): 10 µM
- IC50 (CT116P53): < 31.6 µM
- IC50 (DLD1): < 31.6 µM

Structure (SMILES): Cc1ccc(Cn2cc(C=O)c3ccccc32)cc1 [Oncrasin K66, 1H-Indole-3-carboxaldehyde, 1-[(4-methylphenyl)methyl]-]
- IC50 (T29 cells [1]): 31.6 µM
- IC50 (T29Kt1 cells [2]; [7]): 3.98 µM
- IC50 (H460 cells [3]; [8]): 0.0631 µM

Structure (SMILES): COC(=O)c1c(C)n(Cc2cccc3ccccc23)c2ccc(O)cc12 [Oncrasin K011, methyl 5-hydroxy-2-methyl-1-(1-naphthylmethyl)-1H-indole-3-carboxylate]
- IC50 (T29 cells [1]): 3.16 µM
- IC50 (T29Kt1 cells [2]; [7]): 3.16 µM
- IC50 (H460 cells [3]; [8]): 1.58 µM

Structure (SMILES): COc1ccc2c(c1)c(CCN)c(C)n2Cc1ccccc1 [Oncrasin K005, [2-(1-benzyl-5-methoxy-2-methyl-1H-indol-3-yl)ethyl]amine hydrochloride]
- IC50 (T29 cells [1]): 15.8 µM
- IC50 (T29Kt1 cells [2]; T29Kt1, read-out: IC50 in T29k cells): 15.8 µM
- IC50 (H460 cells [3]; NCI-H460, read-out: IC50 in H460 cells): 6.31 µM

Structure (SMILES): OCc1cn(Cc2ccc(Cl)c(Cl)c2)c2ccccc12 [Oncrasin K049, [1-(3,4-dichlorobenzyl)-1H-indol-3-yl]methanol]
- IC50 (HKE3; first HKE3 line): 0.00251 µM
- IC50 (HKE3; second HKE3 line): 0.00316 µM
- IC50 (H23): 15.8 µM
- IC50 (H2087): 7.94 µM
- IC50 (T29Kt1 cells [2]; [7]): 0.316 µM
- IC50 (A549CK8): 6.31 µM
- IC50 (H1395): 15.8 µM
- IC50 (H322 cells): 10 µM
- IC50 (H226B cells; first H226B line): 0.00251 µM
- IC50 (H226B cells; second H226B line): 0.00316 µM
- IC50 (Ovcar3): 0.01 µM
- IC50 (Capanc-1): 12.6 µM
- IC50 (Heb46): 0.0316 µM
- IC50 (H1933): 100 µM
- IC50 (Ovcar443): 10 µM
- IC50 (Ovca429): 7.94 µM
- IC50 (H1299 cells): 10 µM
- IC50 (H2009): 10 µM
- IC50 (H460 cells [3]; [9]): 0.0316 µM
- IC50 (H460 cells [3]; [8]): 0.0316 µM
- IC50 (Heb44): 0.01 µM
- IC50 (H2122): 0.316 µM
- IC50 (SKOV3): 3.16 µM
- IC50 (Hct116): 0.01 µM
- IC50 (miapac): < 31.6 µM
- IC50 (AsPC-1): 10 µM
- IC50 (A549 cells): 10 µM
- IC50 (CT116P53): < 31.6 µM
- IC50 (DLD1): < 31.6 µM

Structure (SMILES): OCn1cc(Cc2cc(C(F)(F)F)cc(C(F)(F)F)c2)c2ccccc21 [Oncrasin K77]
- IC50 (T29 cells [1]): 6.31 µM
- IC50 (T29Kt1 cells [2]; [7]): 7.94 µM
- IC50 (H460 cells [3]; [8]): 7.94 µM

Structure (SMILES): O=[N+]([O-])c1cccc(Cn2cc(CO)c3ccccc32)c1 [Oncrasin K69, 1H-Indole-3-methanol, 1-[(3-nitrophenyl)methyl]-]
- IC50 (HKE3; first HKE3 line): 0.0794 µM
- IC50 (HKE3; second HKE3 line): 1 µM
- IC50 (H2087): 31.6 µM
- IC50 (Sw620): 31.6 µM
- IC50 (T29Kt1 cells [2]; [7]): 0.398 µM
- IC50 (A549CK8): 1.26 µM
- IC50 (H1395): < 31.6 µM
- IC50 (H226B cells; first H226B line): 0.0316 µM
- IC50 (H226B cells; second H226B line): 0.1 µM
- IC50 (Ovcar3): 0.251 µM
- IC50 (Capanc-1): 31.6 µM
- IC50 (Heb46): 0.316 µM
- IC50 (H1933): < 31.6 µM
- IC50 (Ovca429): 31.6 µM
- IC50 (H2009): < 31.6 µM
- IC50 (H460 cells [3]; [9]): 0.0398 µM
- IC50 (H460 cells [3]; [8]): 0.0398 µM
- IC50 (Hey): < 31.6 µM
- IC50 (Heb44): 0.0794 µM
- IC50 (H2122): 2 µM
- IC50 (SKOV3): 3.16 µM
- IC50 (Hct116): 0.316 µM
- IC50 (miapac): < 31.6 µM
- IC50 (AsPC-1): 7.94 µM
- IC50 (CT116P53): < 31.6 µM
- IC50 (DLD1): < 31.6 µM

Structure (SMILES): O=C1C(=Cc2ccccn2)c2ccccc2N1Cc1ccccc1 [Oncrasin K046, 2-Indolinone, 1-benzyl-3-(2-pyridylmethylene)-(8CI)]
- IC50 in T29k cells (T29Kt1 cells [4]): 5.3
- IC50 in T29 cells (T29 cells [5]): 5.3

Structure (SMILES): CC(C)(C)OC(=O)C1=C(N)N(Cc2ccccc2)C2(C)C=CC(=O)C=C12 (stereo not drawn) [Oncrasin K041, tert-butyl 2-amino-1-benzyl-7a-methyl-5-oxo-indole-3-carboxylate]
- IC50 (T29 cells [1]): 5.01 µM
- IC50 (T29Kt1 cells [2]; [7]): 5.01 µM

Structure (SMILES): Cc1ccc(Cn2cc(CO)c3ccccc32)cc1 [Oncrasin K67, 1H-Indole-3-methanol, 1-[(4-methylphenyl)methyl]-(9CI)]
- IC50 in H460 cells (H460 cells [6]): 7
- IC50 in T29k cells (T29Kt1 cells [4]): 6.1
- IC50 in T29 cells (T29 cells [5]): 4.8
